The values that follow come from ChEMBL document CHEMBL1909046, “DrugMatrix in vitro pharmacology data”.

The structures appear in SMILES notation.

One data set concerns the target Nitric oxide synthase 1 (Rattus norvegicus, UniProt P29476). The data set is classed as tissue-based, Cerebellum. Also: in other assays of this panel Not Active means under 50% inhibition at 10 µM.
Data set [1] has as its target Mitogen-activated protein kinase 14 (Homo sapiens, UniProt Q16539). Also on record: species or system Escherichia coli.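 Also: inhibition of p38alpha enzyme activity in a biochemical kinase assay, with myelin basic protein serving as substrate; in other assays of this panel Not Active means under 50% inhibition at 10 µM.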
A further data set has as its target Cytochrome P450 2C9 (Homo sapiens, UniProt P11712). To be noted: bti-tn-5b1-4. Also: in other assays of this panel Not Active means under 50% inhibition at 10 µM.
Data set [2] addresses T1, Amine oxidase [flavin-containing] A (Homo sapiens, UniProt P21397).
T1 sequence (P21397 whole entry): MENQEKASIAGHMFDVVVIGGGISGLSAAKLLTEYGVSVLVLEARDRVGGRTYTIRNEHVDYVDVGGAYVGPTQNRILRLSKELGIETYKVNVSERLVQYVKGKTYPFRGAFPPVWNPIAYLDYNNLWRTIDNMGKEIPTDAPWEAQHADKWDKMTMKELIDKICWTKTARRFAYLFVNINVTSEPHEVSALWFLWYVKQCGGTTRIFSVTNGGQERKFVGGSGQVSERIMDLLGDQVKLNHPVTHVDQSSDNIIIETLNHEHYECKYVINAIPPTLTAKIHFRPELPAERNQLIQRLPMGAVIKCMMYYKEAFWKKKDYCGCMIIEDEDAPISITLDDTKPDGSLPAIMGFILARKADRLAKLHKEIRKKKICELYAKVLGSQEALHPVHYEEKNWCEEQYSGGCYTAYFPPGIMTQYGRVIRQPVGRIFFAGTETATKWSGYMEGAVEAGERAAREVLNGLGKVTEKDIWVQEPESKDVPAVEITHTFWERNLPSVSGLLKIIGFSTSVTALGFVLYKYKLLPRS
Kind of data set: DRUGMATRIX: Monoamine Oxidase MAO-A enzyme inhibition (substrate: Kynuramine). Also on record: species or system BTI-TN-5B1-4. To be noted: Not Active = under 50% inhibition at 10 µM.

Another data set deals with T2, Thromboxane-A synthase (Homo sapiens, UniProt P24557).
T2 sequence (P24557 whole entry): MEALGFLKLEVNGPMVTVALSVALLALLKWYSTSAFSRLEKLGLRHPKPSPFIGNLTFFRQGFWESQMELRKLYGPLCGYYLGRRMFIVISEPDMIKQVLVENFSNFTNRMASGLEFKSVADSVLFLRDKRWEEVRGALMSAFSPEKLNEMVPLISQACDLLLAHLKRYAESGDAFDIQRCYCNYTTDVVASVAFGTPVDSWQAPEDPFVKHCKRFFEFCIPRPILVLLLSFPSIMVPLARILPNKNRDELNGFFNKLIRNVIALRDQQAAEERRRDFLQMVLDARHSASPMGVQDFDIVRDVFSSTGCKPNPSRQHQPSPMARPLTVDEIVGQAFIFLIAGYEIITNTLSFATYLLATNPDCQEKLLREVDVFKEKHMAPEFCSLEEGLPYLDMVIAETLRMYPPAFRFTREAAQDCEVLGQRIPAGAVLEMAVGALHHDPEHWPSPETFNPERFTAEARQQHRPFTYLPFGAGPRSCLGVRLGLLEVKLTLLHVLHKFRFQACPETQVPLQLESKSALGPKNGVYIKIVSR
Kind of data set: biochemical. The data set is classed as tissue-based, Platelet. The conditions noted are these: platelet.

Another data set concerns the target Adenosine receptor A2a (Homo sapiens, UniProt P29274). Description: DRUGMATRIX: Adenosine A2A radioligand binding (ligand: […]). The data set is classed as cell membranes, HEK293, Membrane. The conditions noted are these: hek293; Not Active = under 50% inhibition at 10 µM.

Sequence of Cytochrome P450 2C9 (P11712 whole entry): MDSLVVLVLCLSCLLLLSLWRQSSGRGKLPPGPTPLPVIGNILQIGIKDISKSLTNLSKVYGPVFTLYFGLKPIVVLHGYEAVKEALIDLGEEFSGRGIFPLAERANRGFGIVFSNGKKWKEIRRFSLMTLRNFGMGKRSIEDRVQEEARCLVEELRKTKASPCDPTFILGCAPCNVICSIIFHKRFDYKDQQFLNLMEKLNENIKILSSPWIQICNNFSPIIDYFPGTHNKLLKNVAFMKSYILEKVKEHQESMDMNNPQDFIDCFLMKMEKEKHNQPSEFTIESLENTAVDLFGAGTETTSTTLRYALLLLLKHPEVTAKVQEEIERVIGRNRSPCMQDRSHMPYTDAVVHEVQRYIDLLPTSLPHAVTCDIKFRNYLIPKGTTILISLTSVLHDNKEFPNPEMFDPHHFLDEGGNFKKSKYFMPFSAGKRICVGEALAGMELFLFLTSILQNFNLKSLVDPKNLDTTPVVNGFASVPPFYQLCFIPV
Sequence of Adenosine receptor A2a (P29274 whole entry): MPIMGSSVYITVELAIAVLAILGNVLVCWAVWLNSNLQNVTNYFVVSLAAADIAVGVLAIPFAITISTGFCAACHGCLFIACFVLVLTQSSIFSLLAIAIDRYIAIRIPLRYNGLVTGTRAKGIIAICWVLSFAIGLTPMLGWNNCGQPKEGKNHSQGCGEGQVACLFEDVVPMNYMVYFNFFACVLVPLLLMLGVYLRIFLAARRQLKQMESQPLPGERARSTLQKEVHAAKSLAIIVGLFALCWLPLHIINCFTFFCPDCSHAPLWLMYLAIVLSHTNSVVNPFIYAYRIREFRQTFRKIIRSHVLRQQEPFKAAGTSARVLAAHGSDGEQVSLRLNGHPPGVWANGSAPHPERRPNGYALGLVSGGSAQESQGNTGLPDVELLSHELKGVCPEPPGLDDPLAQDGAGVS
Sequence of Nitric oxide synthase 1 (P29476 whole entry): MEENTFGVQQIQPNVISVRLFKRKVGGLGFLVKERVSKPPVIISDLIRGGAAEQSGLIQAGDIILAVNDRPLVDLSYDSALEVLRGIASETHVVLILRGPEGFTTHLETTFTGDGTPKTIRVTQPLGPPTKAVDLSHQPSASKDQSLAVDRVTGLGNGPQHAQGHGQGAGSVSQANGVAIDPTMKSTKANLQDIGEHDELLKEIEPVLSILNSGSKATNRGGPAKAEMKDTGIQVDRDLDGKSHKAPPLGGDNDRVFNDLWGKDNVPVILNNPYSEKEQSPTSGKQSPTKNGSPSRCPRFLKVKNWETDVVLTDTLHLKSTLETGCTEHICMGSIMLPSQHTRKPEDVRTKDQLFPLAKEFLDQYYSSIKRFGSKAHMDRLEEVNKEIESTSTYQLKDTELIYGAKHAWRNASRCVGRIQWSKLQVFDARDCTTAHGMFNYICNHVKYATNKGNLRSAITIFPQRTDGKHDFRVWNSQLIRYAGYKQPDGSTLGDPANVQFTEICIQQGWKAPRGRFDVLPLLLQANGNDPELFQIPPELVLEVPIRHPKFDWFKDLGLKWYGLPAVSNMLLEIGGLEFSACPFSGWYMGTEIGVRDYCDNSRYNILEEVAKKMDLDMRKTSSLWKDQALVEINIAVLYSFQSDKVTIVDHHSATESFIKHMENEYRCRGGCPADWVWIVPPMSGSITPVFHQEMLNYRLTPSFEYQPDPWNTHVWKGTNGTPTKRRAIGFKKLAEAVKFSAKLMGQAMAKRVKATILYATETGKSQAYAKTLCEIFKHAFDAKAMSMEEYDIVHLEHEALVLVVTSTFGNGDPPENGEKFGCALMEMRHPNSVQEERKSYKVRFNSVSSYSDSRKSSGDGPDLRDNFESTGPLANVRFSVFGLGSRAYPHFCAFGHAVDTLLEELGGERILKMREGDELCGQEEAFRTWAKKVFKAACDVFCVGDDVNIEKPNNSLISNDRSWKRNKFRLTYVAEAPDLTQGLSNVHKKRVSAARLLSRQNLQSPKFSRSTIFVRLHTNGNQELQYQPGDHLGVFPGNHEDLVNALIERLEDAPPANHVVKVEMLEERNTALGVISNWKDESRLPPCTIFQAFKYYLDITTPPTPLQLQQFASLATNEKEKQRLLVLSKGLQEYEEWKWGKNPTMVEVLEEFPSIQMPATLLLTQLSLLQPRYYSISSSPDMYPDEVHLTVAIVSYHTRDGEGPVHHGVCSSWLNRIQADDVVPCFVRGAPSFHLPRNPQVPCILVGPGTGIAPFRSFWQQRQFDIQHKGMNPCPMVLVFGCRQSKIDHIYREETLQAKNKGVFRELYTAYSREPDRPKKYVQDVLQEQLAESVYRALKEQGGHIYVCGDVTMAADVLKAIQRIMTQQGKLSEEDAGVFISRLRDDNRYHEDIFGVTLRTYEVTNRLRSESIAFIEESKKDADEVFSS
Sequence of Mitogen-activated protein kinase 14 (Q16539 whole entry): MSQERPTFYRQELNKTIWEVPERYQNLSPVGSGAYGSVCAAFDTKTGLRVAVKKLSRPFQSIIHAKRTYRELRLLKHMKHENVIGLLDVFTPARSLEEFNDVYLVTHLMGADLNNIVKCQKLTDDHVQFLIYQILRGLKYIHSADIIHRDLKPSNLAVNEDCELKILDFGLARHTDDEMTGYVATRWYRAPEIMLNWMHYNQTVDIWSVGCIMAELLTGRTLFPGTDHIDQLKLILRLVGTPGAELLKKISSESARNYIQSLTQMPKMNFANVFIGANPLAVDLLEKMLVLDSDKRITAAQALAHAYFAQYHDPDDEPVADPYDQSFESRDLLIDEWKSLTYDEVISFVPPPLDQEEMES

Broadly, the IC50 is the midpoint of a concentration-inhibition curve. For `NCCCNCCSP(=O)(O)O` [AMIFOSTINE], the IC50 result (at Nitric oxide synthase 1; in data set [1]; on Cytochrome P450 2C9; in data set [2] (bti-tn-5b1-4); against Thromboxane-A synthase; at Adenosine receptor A2a) was “Not Active” each time. Further, the Ki result on Cytochrome P450 2C9 is “Not Active”.

As to `CN(C)CCC=C1c2ccccc2CCc2ccccc21` [AMITRIPTYLINE], the IC50 result (at Nitric oxide synthase 1; in data set [1]; at Cytochrome P450 2C9; in data set [2] (bti-tn-5b1-4); on Thromboxane-A synthase; at Adenosine receptor A2a) was “Not Active” in each case. Further, at Cytochrome P450 2C9, the Ki entry is “Not Active”.

In the case of `CC(=O)Oc1ccccc1C(=O)O` [ASPIRIN], the IC50 entry (on Nitric oxide synthase 1; in data set [1]; on Cytochrome P450 2C9; in data set [2] (bti-tn-5b1-4); at Thromboxane-A synthase; at Adenosine receptor A2a) was “Not Active” each time. The Ki entry on Cytochrome P450 2C9 was “Not Active”.

On to `CC(=O)OC[C@H]1O[C@@H](n2ncc(=O)[nH]c2=O)[C@H](OC(C)=O)[C@@H]1OC(C)=O` [AZARIBINE], for which the IC50 result (on Nitric oxide synthase 1; in data set [1]; against Cytochrome P450 2C9; in data set [2] (bti-tn-5b1-4); against Thromboxane-A synthase; at Adenosine receptor A2a) was “Not Active” in each case. For the same molecule, the Ki result on Cytochrome P450 2C9 is “Not Active”.

In the case of `C[C@H]1[C@H](NC(=O)/C(=N\OC(C)(C)C(=O)O)c2csc(N)n2)C(=O)N1S(=O)(=O)O` [AZTREONAM], the IC50 entry (against Nitric oxide synthase 1; in data set [1]; against Cytochrome P450 2C9; in data set [2] (bti-tn-5b1-4); at Thromboxane-A synthase; on Adenosine receptor A2a) was “Not Active” throughout. In addition, at Cytochrome P450 2C9, the Ki entry was “Not Active”.

For the molecule `O=C(O)CCNC(=O)c1ccc(/N=N/c2ccc(O)c(C(=O)O)c2)cc1` [BALSALAZIDE], the IC50 result (at Nitric oxide synthase 1; in data set [1]; on Cytochrome P450 2C9; in data set [2] (bti-tn-5b1-4); against Thromboxane-A synthase; on Adenosine receptor A2a) was “Not Active” throughout. Besides, the Ki entry on Cytochrome P450 2C9 was “Not Active”.

As for `COc1cc(OC)c(C(=O)CCCN2CCCC2)c(OC)c1` [BUFLOMEDIL], the IC50 entry (against Nitric oxide synthase 1; in data set [1]; on Cytochrome P450 2C9; in data set [2] (bti-tn-5b1-4); on Thromboxane-A synthase; on Adenosine receptor A2a) was “Not Active” each time. In addition, the Ki entry at Cytochrome P450 2C9 is listed as “Not Active”.

As for `ClC(Cl)(Cl)Cl` [CARBON TETRACHLORIDE], the IC50 result (against Nitric oxide synthase 1; in data set [1]; at Cytochrome P450 2C9; in data set [2] (bti-tn-5b1-4); against Thromboxane-A synthase; on Adenosine receptor A2a) was “Not Active” each time. Further, the Ki result on Cytochrome P450 2C9 is “Not Active”.

In the case of `CO/N=C(\C(=O)N[C@@H]1C(=O)N2C(C(=O)O)=C(COC(C)=O)CS[C@H]12)c1csc(N)n1` [CEFOTAXIME], the IC50 entry (on Nitric oxide synthase 1; in data set [1]; at Cytochrome P450 2C9; in data set [2] (bti-tn-5b1-4); against Thromboxane-A synthase; on Adenosine receptor A2a) was “Not Active” throughout. Besides, the Ki result at Cytochrome P450 2C9 is “Not Active”.

As to `CNC1=Nc2ccc(Cl)cc2C(c2ccccc2)=[N+]([O-])C1` [CHLORDIAZEPOXIDE], the IC50 result (at Nitric oxide synthase 1; in data set [1]; against Cytochrome P450 2C9; in data set [2] (bti-tn-5b1-4); against Thromboxane-A synthase; on Adenosine receptor A2a) was “Not Active” throughout. Further, the Ki entry on Cytochrome P450 2C9 is on record as “Not Active”.

As for `Cc1cc(O)cc(C)c1Cl` [CHLOROXYLENOL], the IC50 result against Nitric oxide synthase 1 is “Not Active”; in data set [1], “Not Active”; against Cytochrome P450 2C9, “Not Active”; in data set [2] (read-out: IC50), 1.83 µM; at Thromboxane-A synthase, “Not Active”; on Adenosine receptor A2a, “Not Active”. Further, on Cytochrome P450 2C9, the Ki result was “Not Active”.

For the molecule `CCCNC(=O)NS(=O)(=O)c1ccc(Cl)cc1` [CHLORPROPAMIDE], the IC50 result (on Nitric oxide synthase 1; in data set [1]; against Cytochrome P450 2C9; in data set [2] (bti-tn-5b1-4); against Thromboxane-A synthase; on Adenosine receptor A2a) was “Not Active” in each case. Further, at Cytochrome P450 2C9, the Ki result is “Not Active”.

Take `NS(=O)(=O)c1cc(C2(O)NC(=O)c3ccccc32)ccc1Cl` (stereo unspecified) [CHLORTHALIDONE]: the IC50 result (on Nitric oxide synthase 1; in data set [1]; against Cytochrome P450 2C9; in data set [2] (bti-tn-5b1-4); at Thromboxane-A synthase; at Adenosine receptor A2a) was “Not Active” each time. The Ki result on Cytochrome P450 2C9 is given as “Not Active”.

Turning to `O=C(O)CC(O)(CC(=O)O)C(=O)O` [CITRIC ACID], the IC50 entry (against Nitric oxide synthase 1; in data set [1]; against Cytochrome P450 2C9; in data set [2] (bti-tn-5b1-4); on Thromboxane-A synthase; on Adenosine receptor A2a) was “Not Active” in each case. In addition, the Ki entry on Cytochrome P450 2C9 was “Not Active”.

Turning to `CC(C)NCC(O)c1ccccc1Cl` (stereo unspecified) [CLORPRENALINE], the IC50 entry (against Nitric oxide synthase 1; in data set [1]; against Cytochrome P450 2C9; in data set [2] (bti-tn-5b1-4); against Thromboxane-A synthase; at Adenosine receptor A2a) was “Not Active” in each case. The Ki result at Cytochrome P450 2C9 is “Not Active”.

On to `CN1CCN(C(c2ccccc2)c2ccccc2)CC1` [CYCLIZINE], for which the IC50 entry (on Nitric oxide synthase 1; in data set [1]; on Cytochrome P450 2C9; in data set [2] (bti-tn-5b1-4); against Thromboxane-A synthase; at Adenosine receptor A2a) was “Not Active” each time. Besides, on Cytochrome P450 2C9, the Ki entry is recorded as “Not Active”.

Regarding `CN1C[C@@H]2C[C@H]1CN2c1cc2c(cc1F)c(=O)c(C(=O)O)cn2C1CC1` [DANOFLOXACIN], the IC50 result (on Nitric oxide synthase 1; in data set [1]; against Cytochrome P450 2C9; in data set [2] (bti-tn-5b1-4); on Thromboxane-A synthase; at Adenosine receptor A2a) was “Not Active” throughout. Besides, the Ki entry at Cytochrome P450 2C9 was “Not Active”.

Turning to `COc1cccc2c1C(=O)c1c(O)c3c(c(O)c1C2=O)C[C@@](O)(C(C)=O)C[C@@H]3O[C@H]1C[C@H](N)[C@H](O)[C@H](C)O1` [DAUNORUBICIN], the IC50 result (at Nitric oxide synthase 1; in data set [1]; against Cytochrome P450 2C9; in data set [2] (bti-tn-5b1-4); against Thromboxane-A synthase; on Adenosine receptor A2a) was “Not Active” each time. Further, the Ki entry at Cytochrome P450 2C9 is reported as “Not Active”.

As for `O=C(O)c1cc(-c2ccc(F)cc2F)ccc1O` [DIFLUNISAL], the IC50 result (on Nitric oxide synthase 1; in data set [1]; at Cytochrome P450 2C9; in data set [2] (bti-tn-5b1-4); against Thromboxane-A synthase; on Adenosine receptor A2a) was “Not Active” throughout. In addition, at Cytochrome P450 2C9, the Ki result was “Not Active”.

Take `C[S+](C)[O-]` [DIMETHYL SULFOXIDE]: the IC50 entry (at Nitric oxide synthase 1; in data set [1]; on Cytochrome P450 2C9; in data set [2] (bti-tn-5b1-4); against Thromboxane-A synthase; at Adenosine receptor A2a) was “Not Active” in each case. Also, the Ki result on Cytochrome P450 2C9 was “Not Active”.

For the molecule `CC1=NN(c2ccccc2)C(=O)C1` [EDARAVONE], the IC50 result (on Nitric oxide synthase 1; in data set [1]; at Cytochrome P450 2C9; in data set [2] (bti-tn-5b1-4); against Thromboxane-A synthase; at Adenosine receptor A2a) was “Not Active” throughout. Also, the Ki result at Cytochrome P450 2C9 was “Not Active”.

Take `C[C@]12CC[C@@H]3c4ccc(O)cc4CC[C@H]3[C@@H]1C[C@@H](O)[C@@H]2O` [ESTRIOL]: the IC50 entry (against Nitric oxide synthase 1; in data set [1]; on Cytochrome P450 2C9; in data set [2] (bti-tn-5b1-4); at Thromboxane-A synthase; on Adenosine receptor A2a) was “Not Active” in each case. Also, at Cytochrome P450 2C9, the Ki result is “Not Active”.

As for `C#C[C@]1(O)CC[C@H]2[C@@H]3CCC4=CC(=O)CC[C@]4(C)[C@H]3CC[C@@]21C` [ETHISTERONE], the IC50 result (against Nitric oxide synthase 1; in data set [1]; against Cytochrome P450 2C9; in data set [2] (bti-tn-5b1-4); against Thromboxane-A synthase; at Adenosine receptor A2a) was “Not Active” each time. The Ki entry at Cytochrome P450 2C9 is recorded as “Not Active”.
